Assay results as given in patent US12240862B2, “Inhibitors of peptidylarginine deiminases” (Gilead Sciences, Inc., priority 2020, dated 2025).

Target: T1, human PAD4 (Homo sapiens, UniProt Q9UM07)
T1 construct: human PAD4 (NM_012387), A2P663, was PCR amplified; His-SUMO (N, cleaved yes); made in house; host or cells: E. coli BL21(DE3)
Test: In vitro PAD4 BAEE biochemical assay
Details: human PAD4, BAEE substrate; 5 nM PAD4, 2 mM calcium chloride, 3 mM BAEE; geometric mean of multiple experiments
Method in brief: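 Ammonia generated from BAEE serves as the readout, measured by o-phthalaldehyde after EDTA termination. Final conditions: 5 nM human PAD4 (SUMO tag cleaved), 2 mM CaCl2, 3 mM BAEE, pH 7.6 MOPS buffer, 25 °C for 2 h following a 30-min compound preincubation.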

T1 sequence (Q9UM07 2-663): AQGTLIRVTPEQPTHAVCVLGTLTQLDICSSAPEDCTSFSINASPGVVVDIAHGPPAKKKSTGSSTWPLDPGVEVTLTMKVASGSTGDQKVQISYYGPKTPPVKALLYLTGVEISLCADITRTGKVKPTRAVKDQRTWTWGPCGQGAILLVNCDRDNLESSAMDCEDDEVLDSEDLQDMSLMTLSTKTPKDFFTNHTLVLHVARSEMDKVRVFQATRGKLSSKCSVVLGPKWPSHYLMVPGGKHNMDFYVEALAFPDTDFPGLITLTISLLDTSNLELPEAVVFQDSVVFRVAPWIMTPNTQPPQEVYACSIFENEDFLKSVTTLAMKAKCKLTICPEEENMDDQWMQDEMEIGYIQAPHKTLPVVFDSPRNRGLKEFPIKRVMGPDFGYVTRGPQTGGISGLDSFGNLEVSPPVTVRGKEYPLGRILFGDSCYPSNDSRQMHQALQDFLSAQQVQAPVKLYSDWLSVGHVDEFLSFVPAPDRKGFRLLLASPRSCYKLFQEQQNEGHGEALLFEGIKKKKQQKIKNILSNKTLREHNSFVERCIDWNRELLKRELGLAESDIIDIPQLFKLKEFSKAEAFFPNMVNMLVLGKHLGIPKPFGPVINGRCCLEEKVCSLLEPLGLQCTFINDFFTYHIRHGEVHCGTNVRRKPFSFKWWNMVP

SMILES	IC50
CCc1ccc2cc(-c3nc4cc(C(=O)N5CCC[C@@H](N)C5)cc(OC)n4c3C3CC3)n(CC3CC3)c2n1 [Example 585, [(3~{R})-3-aminopiperidin-1-yl]-[3-cyclopropyl-2-[1-(cyclopropylmethyl)-6-ethylpyrrolo[2,3-b]pyridin-2-yl]-5-methoxyimidazo [1,2-a]pyridin-7-yl]methanone]	174 nM
CCc1ccc2cc(-c3nc4cc(C(=O)N5CCC[C@@H](N)C5)ccn4c3C3CC3)n(CC3CC3)c2n1 [Example 597, [(3~{R})-3-aminopiperidin-1-yl]-[3-cyclopropyl-2-[1-(cyclopropylmethyl)-6-ethylpyrrolo[2,3-b]pyridin-2-yl]imidazo[1,2-a]pyridin-7-yl]methanone]	299 nM
COc1cc(C(=O)N2C[C@H](N)C[C@@H]2CF)cc2nc(-c3cc4ccc(N(C(F)F)S(C)(=O)=O)nc4n3CC3CC3)c(C)n12 [Example 353, N-[2-[7-[(2R,4R)-4-amino-2-(fluoromethyl)pyrrolidine-1-carbonyl]-5-methoxy-3-methyl-imidazo[1,2-a]pyridin-2-yl]-1-(cyclopropylmethyl)pyrrolo [2,3-b]pyridin-6-yl]-N-(difluoromethyl) methanesulfonamide]	26800 nM
COc1cc(C(=O)N2[C@H]3CC[C@@H]2[C@H](N)C3)cc2nc(-c3cc4ccc(N5CCN(Cc6cccnc6)CCS5(=O)=O)nc4n3CC3CC3)c(C)n12 [Example 442, [(1~{R},2~{R},4~{S})-2-amino-7-azabicyclo [2.2.1]heptan-7-yl]-[2-[1-(cyclopropylmethyl)-6-[1,1-dioxo-5-(pyridin-3-ylmethyl)-1,2,5-thiadiazepan-2-yl]pyrrolo [2,3-b]pyridin-2-yl]-5-methoxy-3-methylimidazo [1,2-a]pyridin-7-yl] methanone]	40.9 nM
COc1cc(C(=O)N2CCC3(CCCN3)CC2)cc2nc(-c3cc4ccc(N(C(F)F)S(C)(=O)=O)nc4n3CC3CC3)c(C)n12 [Example 342, ~{N}-[1-(cyclopropylmethyl)-2-[7-(1,8-diazaspiro[4.5]decane-8-carbonyl)-5-methoxy-3-methylimidazo[1,2-a]pyridin-2-yl]pyrrolo[2,3-b]pyridin-6-yl]-~{N}-(difluoromethyl) methanesulfonamide]	14100 nM
COc1cc(C(=O)N2C[C@H](N)CC[C@@H]2C)cc2nc(-c3cc4ccc(-c5c(C)n[nH]c5C)nc4n3CC3CC3)c(C)n12 [Example 611, [(2~{S},5~{R})-5-amino-2-methylpiperidin-1-yl]-[2-[1-(cyclopropylmethyl)-6-(3,5-dimethyl-1~{H}-pyrazol-4-yl)pyrrolo[2,3-b]pyridin-2-yl]-5-methoxy-3-methylimidazo[1,2-a]pyridin-7-yl]methanone]	726 nM
COc1cc(C(=O)N2CC[C@H]3CCNC[C@H]32)cc2nc(-c3cc4ccc(N(C(F)F)S(C)(=O)=O)nc4n3CC3CC3)c(C)n12 [Example 415, ~{N}-[2-[7-[(3~{a}~{R},7~{a}~{S})-2,3,3~{a},4,5,6,7,7~{a}-octahydropyrrolo[2,3-c]pyridine-1-carbonyl]-5-methoxy-3-methylimidazo[1,2-a]pyridin-2-yl]-1-(cyclopropylmethyl)pyrrolo [2,3-b]pyridin-6-yl]-~{N}-(difluoromethyl) methanesulfonamide]	27900 nM
CCN(c1ccc2cc(-c3nc4cc(C(=O)N5CCC[C@@H](N)[C@H]5C)cc(OC)n4c3C)n(CC3CC3)c2n1)S(C)(=O)=O [Example 483, ~{N}-[2-[7-[(2~{R}, 3~{R})-3-amino-2-methylpiperidine-1-carbonyl]-5-methoxy-3-methylimidazo[1,2-a]pyridin-2-yl]-1-(cyclopropylmethyl)pyrrolo [2,3-b]pyridin-6-yl]-~{N}-ethylmethanesulfonamide]	128 nM
COc1cc(C(=O)N[C@@H]2CNCC[C@H]2C)cc2nc(-c3cc4ccc(N(C(F)F)S(C)(=O)=O)nc4n3CC3CC3)c(C)n12 [Example 281, 2-[1-(cyclopropylmethyl)-6-[difluoromethyl (methylsulfonyl)amino]pyrrolo[2,3-b]pyridin-2-yl]-5-methoxy-3-methyl-~{N}-[(3~{S},4~{R})-4-methylpiperidin-3-yl] imidazo[1,2-a]pyridine-7-carboxamide]	16200 nM
CCc1ccc2cc(-c3nc4cc(C(=O)N5CC[C@H]6OCCN[C@H]6C5)cc(OC)n4c3C)n(CC3CC3)c2n1 [Example 591, [(4~{a}~{S},8~{a}~{R})-2,3,4,4~{a},5,7,8,8~{a}-octahydropyrido[4,3-b] [1,4]oxazin-6-yl]-[2-[1-(cyclopropylmethyl)-6-ethylpyrrolo[2,3-b]pyridin-2-yl]-5-methoxy-3-methylimidazo[1,2-a]pyridin-7-yl]methanone]	936 nM

Continued, values first:

IC50	SMILES
70 nM	COc1cc(C(=O)N2[C@H]3CC[C@@H]2[C@H](N)C3)cc2nc(-c3cc4ccc([C@@H](C)NC(=O)N5CCC5)nc4n3CC3CC3)c(C)n12 [Example 247]
571 nM	COc1cc(C(=O)N2CCC[C@@H](N)C2)cc2nc(-c3cc4ccc(C(C)n5ccnn5)nc4n3CC3CC3)c(C)n12 (some centres unmarked) [Example 537, [(3~{R})-3-aminopiperidin-1-yl]-[2-[1-(cyclopropylmethyl)-6-[1-(triazol-1-yl)ethyl]pyrrolo[2,3-b]pyridin-2-yl]-5-methoxy-3-methylimidazo[1,2-a]pyridin-7-yl]methanone]
67.3 nM	COc1cc(C(=O)N2C[C@H](N)[C@@H]3CC[C@H]2C3)cc2nc(-c3cc4ccc([C@@H](C)NC(=O)C56CC(F)(C5)C6)nc4n3CC3CC3)c(C)n12 [Example 189, N—((R)-1-(2-(7-((1S,4R,5R)-4-amino-2-azabicyclo[3.2.1]octane-2-carbonyl)-5-methoxy-3-methylimidazo[1,2-a]pyridin-2-yl)-1-(cyclopropylmethyl)-1H-pyrrolo[2,3-b]pyridin-6-yl)ethyl)-3-fluorobicyclo[1.1.1]pentane-1-carboxamide]
161 nM	COc1cc(C(=O)N2[C@@H]3CC[C@@H](N)[C@H]2CC3)cc2nc(-c3cc4ccc([C@@H](C)NC(=O)C(C)(C)C)nc4n3CC3CC3)c(C)n12 [Example 170, ~{N}-[(1~{R})-1-[2-[7-[(1~{R},2~{R},5~{R})-2-amino-8-azabicyclo[3.2.1]octane-8-carbonyl]-5-methoxy-3-methylimidazo [1,2-a]pyridin-2-yl]-1-(cyclopropylmethyl)pyrrolo [2,3-b]pyridin-6-yl]ethyl]-2,2-dimethylpropanamide]
30.6 nM	COc1cc(C(=O)N2[C@H]3CC[C@@H]2[C@H](N)C3)cc2nc(-c3cc4ccc([C@@H](C)NC(=O)c5ccnc(C(F)F)c5)nc4n3CC3CC3)c(C)n12 [Example 50, ~{N}-[(1~{R})-1-[2-[7-[(1~{R},2~{R},4~{S})-2-amino-7-azabicyclo[2.2.1]heptane-7-carbonyl]-5-methoxy-3-methylimidazo [1,2-a]pyridin-2-yl]-1-(cyclopropylmethyl)pyrrolo[2,3-b]pyridin-6-yl]ethyl]-2-(difluoromethyl)pyridine-4-carboxamide]
73.3 nM	CC[C@H]1CCCS(=O)(=O)N1c1ccc2cc(-c3nc4cc(C(=O)N5[C@H]6CC[C@@H]5[C@H](N)C6)cc(OC)n4c3C)n(CC3CC3)c2n1 [Example 446, [(1~{R},2~{R},4~{S})-2-amino-7-azabicyclo [2.2.1]heptan-7-yl]-[2-[1-(cyclopropylmethyl)-6-[(3~{S})-3-ethyl-1,1-dioxothiazinan-2-yl]pyrrolo[2,3-b]pyridin-2-yl]-5-methoxy-3-methylimidazo[1,2-a]pyridin-7-yl]methanone]
78.7 nM	COc1cc(C(=O)N2CCC[C@@H](N)C2)cc2nc(-c3cc4ccc([C@@H](C)NC(=O)C56CC(F)(C5)C6)nc4n3CC3CC3)c(C)n12 [Example 125, ~{N}-[(1~{R})-1-[2-[7-[(3~{R})-3-aminopiperidine-1-carbonyl]-5-methoxy-3-methylimidazo[1,2-a]pyridin-2-yl]-1-(cyclopropylmethyl)pyrrolo[2,3-b]pyridin-6-yl]ethyl]-3-fluorobicyclo[1.1.1] pentane-1-carboxamide]
10500 nM	COc1cc(C(=O)N2CC[C@@H]3CCCN[C@@H]3C2)cc2nc(-c3cc4ccc([C@@H](C)NC(=O)C56CC(F)(C5)C6)nc4n3CC3CC3)c(C)n12 [Example 181, ~{N}-[(1~{R})-1-[2-[7-[(4~{a}~{S},8~{a}~{S})-2,3,4,4~{a},5,6,8,8~{a}-octahydro-1~{H}-1,7-naphthyridine-7-carbonyl]-5-methoxy-3-methylimidazo [1,2-a]pyridin-2-yl]-1-(cyclopropylmethyl)pyrrolo [2,3-b]pyridin-6-yl]ethyl]-3-fluorobicyclo[1.1.1]pentane-1-carboxamide]
81.3 nM	COc1cc(C(=O)N2[C@H]3CC[C@@H]2[C@H](N)C3)cc2nc(-c3cc4ccc([C@@H](C)NC(=O)N5CC(C(N)=O)C5)nc4n3CC3CC3)c(C)n12 [Example 225, 1-~{N}-[(1~{R})-1-[2-[7-[(1~{R},2~{R},4~{S})-2-amino-7-azabicyclo[2.2.1]heptane-7-carbonyl]-5-methoxy-3-methylimidazo [1,2-a]pyridin-2-yl]-1-(cyclopropylmethyl)pyrrolo [2,3-b]pyridin-6-yl]ethyl]azetidine-1,3-dicarboxamide]
52.3 nM	COc1cc(C(=O)N2[C@H]3CC[C@@H]2[C@H](N)C3)cc2nc(-c3cc4ccc([C@@H](C)NC(=O)c5ccn(C)n5)nc4n3CC3CC3)c(C)n12 [Example 108, ~{N}-[(1~{R})-1-[2-[7-[(1~{R},2~{R},4~{S})-2-amino-7-azabicyclo[2.2.1]heptane-7-carbonyl]-5-methoxy-3-methylimidazo [1,2-a]pyridin-2-yl]-1-(cyclopropylmethyl)pyrrolo [2,3-b]pyridin-6-yl]ethyl]-1-methylpyrazole-3-carboxamide]
